Values of other authors in patent US6790668B1, “Monitoring patient compliance and bioavailability of drugs by deproteinizing body fluids” (Fundacao Oswaldo Cruz - Fiocruz, priority 1998, dated 2004).

Experiments:
[1] = human body; the rest by the kidneys
[2] = organic solvents; acid pH water

Which “Share of the drug eliminated in the bile” value [1] does the source give for `CO[C@H]1/C=C/O[C@@]2(C)Oc3c(C)c(O)c4c(O)c(c(/C=N/N5CCN(C)CC5)c(O)c4c3C2=O)NC(=O)/C(C)=C\C=C\[C@H](C)[C@H](O)[C@@H](C)[C@@H](O)[C@@H](C)[C@H](OC(C)=O)[C@@H]1C` [rifampicin] here?
Its value is “about 80%”.

What about the Solubility [2] of the same compound?
Its Solubility is “soluble both in organic solvents and in acid pH water”.
